In series [1] the target is PDE7A (Homo sapiens (Human), UniProt Q13946). The series can be described thus: PDE7 phosphodiesterase scintillation proximity assay (SPA), PDE7A. Type of series: biochemical. A general note: SPA uses beads or plates that emit light when radiolabelled molecules are held near them.
Series [2] relates to MPTP-treated mice. Nature of the series: inked paw stride length in the MPTP mouse model of Parkinson's disease, panel of PDE7 inhibitors (Example 7). The series is classed as in vivo. The settings on record: 20 minutes after dose. On the procedure:
Adult male C57BL/6J; retired breeders, aged between 7-9 months Charles River Laboratories, Wilmington, Mass.), singly housed. Three groups of 35 mice were tested in series one week apart.
Mice received 2 subcutaneous injections of methylphenyltetrahydropyridine (“MPTP”) at a dose of 15 mg/kg (free base) with a 10-12 hour interval between injections. Control mice (sham lesion groups) were administered saline instead of MPTP.
Prior to injection with MPTP or saline, animals were pre-trained to walk across a clean sheet of paper into their home cage without stopping. For assessment of stride length, animals had their forepaws placed in black ink and the length of forepaw steps during normal walking (in a straight line only) was measured. The animals were immediately put back into their home cage upon completion of the task. Stride length was determined by measuring the distance between each step on the same side of the body, measuring from the middle toe of the first step to the heel of the second step. An average of at least four clear steps was calculated. The schedule for this experiment was as follows:
Because of the wide variation in aqueous solubility among these compounds, a number of different formulations were required. L-dopa was administered in 100 μl of phosphate buffered saline. For animals treated with L-dopa, the dopa decarboxylase inhibitor benserazide (100 μL of a 12.5 mg/kg solution) was administered 15 minutes prior to treatment with L-dopa in order to minimize the destruction of L-dopa in the peripheral blood. […] Therefore, the treatment effects observed are due solely to the PDE7 inhibitory compounds themselves. […] This phenomenon of “overshoot” has also been observed with L-dopa in MPTP-treated mice in which lower doses ameliorate hypoactivity while higher doses induce dyskinesias or uncontrolled movements (Lundblad M. et al., Exp Neurol.194(1):66-75 (2005); Pearce R. K. et al., Mov Disord. 10(6):731-40 (1995); Fredriksson, A. et al, Pharmacol-Toxicol. 67(4): 295-301 (1990)).
Retired breeder male mice were treated with either saline or 2×15 mg/kg MPTP to induce a Parkinsonian state (neurochemical loss of dopamine with corresponding behavioral deficits). On day one baseline stride length was measured and then mice were treated with either MPTP or with saline as a control. On day eight stride length was measured again, and the control value for stride length was derived from the stride length of saline-treated animals. The animals were then divided randomly into treatment groups. Compound OM955 (compound 3) was tested at 0.1 mg/kg, at 0.5 mg/kg, and at 0.1 mg/kg in combination with 1 mg/kg L-dopa.

The nature of series [3]: plasma and brain concentration in mice after intraperitoneal injection (LC/MS/MS). The series is classed as in vivo, mouse. The conditions noted are these: mouse, at 0.5 mg/kg, analogous calculation. On the procedure:
Adult male C57BL/6J; retired breeders, aged between 7-9 months (Jackson Laboratory, Bar Harbor, Me., USA), singly housed.
Just prior to the harvesting of tissues, mice were anesthetized with avertin. Samples of whole brain or plasma were collected from three animals per time point at 15 minutes, 30 minutes, 60 minutes, 120 minutes, and 240 minutes after injection. Blood samples were collected by retro-orbital bleeding. Plasma was prepared and red cells were removed by centrifugation. The mice were perfused with saline to remove contaminating blood. The brains were removed and rapidly frozen in liquid nitrogen for subsequent analysis. The plasma and brain samples were stored at −80° C. or on dry ice and the concentration of compound was determined by LC/MS/MS analysis as follows:
Whole brain tissue was homogenized using a Mini-Beaddeater-8™ (BioSpec Products, Bartlesville, Okla.). Plasma or homogenized brain samples were precipitated with acetonitrile and filtered in 96-well format using Captiva 0.20 micron filtration plates (Varian Corp, Lake Forest, Calif.). Filtrates were evaporated under nitrogen to dryness at 50° C. and were then reconstituted for LC-MS analysis.
Quantitative measurements for inhibitory compound in plasma and brain samples were obtained using a Thermo Ultra triple quadrupole mass spectrometer (Thermo Fisher Scientific, San Jose, Calif.), utilizing electrospray ionization in the multiple reaction monitoring mode of data acquisition. Sample extracts were injected onto a 2.1×30 mm packed Xterra C18-MS high pressure liquid chromatography (HPLC) column (Waters Corp, Milford, Mass.). The mobile phase eluting the compound from the HPLC column was applied using a Thermo Surveyor MS Plus HPLC quaternary pumping system (Thermo Fisher Scientific, San Jose, Calif.) and a HTC PAL autoinjector (LEAP Technologies, Chapel Hill, N.C.).

The target of series [4] is PDE7B (Homo sapiens (Human), UniProt Q9NP56). Nature of the series: PDE7 phosphodiesterase scintillation proximity assay (SPA), PDE7B. The series is classed as biochemical.
Chain of PDE7B (Q9NP56 107-450 limits assumed): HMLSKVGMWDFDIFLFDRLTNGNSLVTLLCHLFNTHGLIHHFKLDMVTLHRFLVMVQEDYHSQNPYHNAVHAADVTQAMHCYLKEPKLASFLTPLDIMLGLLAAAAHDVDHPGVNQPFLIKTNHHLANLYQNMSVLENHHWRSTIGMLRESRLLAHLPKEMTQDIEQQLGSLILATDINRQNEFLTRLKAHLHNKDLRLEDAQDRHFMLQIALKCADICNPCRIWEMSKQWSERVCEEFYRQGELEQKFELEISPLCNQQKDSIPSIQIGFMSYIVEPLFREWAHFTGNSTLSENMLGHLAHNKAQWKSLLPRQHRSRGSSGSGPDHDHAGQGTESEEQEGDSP
Series [5] addresses T1, Catechol-O-Methyltransferase (COMT) (Sus scrofa, UniProt D3K5L3). The series can be described thus: biochemical. Type of series: biochemical, pig.
For series [6], the target named is T1, Catechol-O-Methyltransferase (COMT). The conditions noted are these: read-out: Positive Control Expected IC50 (historical), COMT; historical value; cited from earlier work.
Series [7] deals with T2, Tyrosine Hydroxylase (Rattus norvegicus (Rat), UniProt P04177). The settings on record: historical value; read-out: Positive Control Expected IC50 (historical), Tyrosine Hydroxylase; cited from earlier work.
T2 sequence (P04177 whole entry): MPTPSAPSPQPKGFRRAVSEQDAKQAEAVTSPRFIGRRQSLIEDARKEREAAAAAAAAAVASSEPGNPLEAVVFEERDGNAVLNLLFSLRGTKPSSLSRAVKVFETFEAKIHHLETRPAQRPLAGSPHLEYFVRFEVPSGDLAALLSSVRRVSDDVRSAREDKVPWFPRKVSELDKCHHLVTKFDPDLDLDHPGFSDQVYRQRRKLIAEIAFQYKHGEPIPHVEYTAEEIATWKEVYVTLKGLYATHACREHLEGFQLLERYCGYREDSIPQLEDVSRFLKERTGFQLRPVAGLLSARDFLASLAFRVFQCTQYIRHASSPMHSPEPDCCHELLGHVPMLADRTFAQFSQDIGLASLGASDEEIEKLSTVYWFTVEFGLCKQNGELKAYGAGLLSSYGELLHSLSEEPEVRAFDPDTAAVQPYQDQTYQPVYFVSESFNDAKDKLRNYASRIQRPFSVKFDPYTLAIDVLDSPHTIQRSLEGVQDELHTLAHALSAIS
The target of series [8] is T2, Tyrosine Hydroxylase. The series can be described thus: Tyrosine Hydroxylase enzyme assay. The series is classed as biochemical. The conditions noted are these: read-out: Positive Control Observed IC50, Tyrosine Hydroxylase. On the procedure: Tyrosine Hydroxylase was assayed as described in Roskoski, R., Jr., et al., J. Biochem 218:363-370 (1993) with the following modifications. Tyrosine Hydroxylase was isolated from Wistar rat brain. The substrate was 100 μM L-[3,5-^3H]Tyrosine+L-Tyrosine. The vehicle control was 1% DMSO. Compound OM69 was tested at 10 μM in incubation buffer (125 mM MES, pH 6.0, 0.5 mg/ml Catalase, 12.5 mM DTT, 0.5 mM (6R)-5,6,7,8-Tetrahydrobiopterin). The reaction was pre-incubated for 15 minutes at 37° C. Tyrosine Hydroxylase enzyme was added, and the reaction was incubated for 20 minutes at 37° C. [^3H]-H20 was quantitated.

Entries after “also recorded” stand apart in the source; their conditions may differ. Where two headings read alike, the source gives them in different places.

Chain of PDE7A (Q13946 whole entry, looked up): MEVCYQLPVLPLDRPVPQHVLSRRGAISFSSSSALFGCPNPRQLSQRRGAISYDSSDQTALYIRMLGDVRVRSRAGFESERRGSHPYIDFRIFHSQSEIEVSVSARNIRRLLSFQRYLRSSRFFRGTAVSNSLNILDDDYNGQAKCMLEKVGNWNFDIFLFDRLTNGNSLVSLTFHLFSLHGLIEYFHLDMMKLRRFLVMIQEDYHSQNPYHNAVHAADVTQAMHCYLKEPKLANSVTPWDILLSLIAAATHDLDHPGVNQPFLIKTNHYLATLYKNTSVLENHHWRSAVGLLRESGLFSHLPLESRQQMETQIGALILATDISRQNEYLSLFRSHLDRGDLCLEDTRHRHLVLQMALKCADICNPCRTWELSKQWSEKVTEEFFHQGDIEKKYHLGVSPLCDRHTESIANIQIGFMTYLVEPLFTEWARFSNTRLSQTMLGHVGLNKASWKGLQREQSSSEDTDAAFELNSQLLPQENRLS
T1 sequence (D3K5L3 1-270): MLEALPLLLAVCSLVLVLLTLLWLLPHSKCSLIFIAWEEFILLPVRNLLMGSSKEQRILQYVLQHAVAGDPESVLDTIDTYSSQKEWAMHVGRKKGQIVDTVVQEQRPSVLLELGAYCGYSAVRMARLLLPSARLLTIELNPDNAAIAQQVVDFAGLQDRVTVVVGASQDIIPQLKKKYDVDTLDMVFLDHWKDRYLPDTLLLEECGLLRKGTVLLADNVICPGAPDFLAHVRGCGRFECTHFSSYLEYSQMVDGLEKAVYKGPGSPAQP

In the case of `CC(=O)Nc1ccc(-c2nn(C)/c(=N/C3CCCCC3)s2)cc1` [OM956], the “potency of PDE7A inhibition, in words” value in series [1] was “moderate potency”. Also, the “effect on stride length, in words” value in series [2] (OM956 0.5 mg/kg) is “statistically significant increase; also recorded: full recovery of baseline stride length”. Further, the “maximal brain concentration at dose where efficacy was observed” value in series [3] is on record as 5260 nM. The “potency of PDE7B inhibition, in words” value in series [4] is recorded as “moderate potency”.

For the compound `COc1cc(N)ccc1-c1nc2c(C)nn(C3CCCCC3)c2c(=O)[nH]1` [OM056], the “potency of PDE7A inhibition, in words” value in series [1] is “high potency”. Moreover, the “effect on stride length, in words” value in series [2] (OM056 0.05 mg/kg) is listed as “statistically significant increase; also recorded: full recovery of baseline stride length”. For the same compound, in series [3], the “maximal brain concentration at dose where efficacy was observed” value is recorded as 358 nM. Besides, in series [4], the “potency of PDE7B inhibition, in words” value is “high potency”. The IC50 (usually the concentration that gives 50% inhibition) in series [4] (unit inferred) stood at 9.27 nM.

Take `O=[N+]([O-])c1cc(O)c(O)c([N+](=O)[O-])c1` [3,5-Dinitrocatechol, reference compound]: the IC50 in series [5] was 606 nM; in series [6], 310 nM.

For the compound `C[C@](N)(Cc1ccc(O)cc1)C(=O)O` [α-Methyl-L-P-Tyrosine, reference compound], the concentration for half-maximal inhibition (IC50) in series [7] was 20 µM; in series [8] it was 20.2 µM.

These data come from US8637528B2, “Use of PDE7 inhibitors for the treatment of movement disorders” (Omeros Corporation, priority 2007, dated 2014).
